Laboratory results reported in patent US10329304B2, “Compounds and methods for inhibition of hedgehog signaling and phosphodiesterase” (Vanderbilt University, priority 2014, dated 2019).
Several values for one entry are separate records, joined by “and”; a condition that tells them apart may be missing. Identical values can stand only once. Like-named read-outs stand apart in the source and are kept apart here.

Columns and labels:
[1] = system: Hedgehog signaling (Gli-Luc reporter); assay: Hh Gli-Luciferase reporter assay in Shh-Light2 cells; assay type: cell-based, mouse; details: Mus musculus, Shh Light2; for EC50: read-out: Shh Light2 Luc EC50
Procedure, shortened: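 Steady-Glo luminescence, corrected for cell titer by CellTiter-Glo, was measured after overnight exposure to compound concentrations. Signaling in Gli-Luc Shh-Light2 cells came either from Shh-conditioned medium, 3 μM purmorphamine or 20 nM SAG, or from transfected Gli-2, PDE4D3 or DN-PDE4D3 constructs.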

PC3 = assay: Cell viability assay (CellTiter-Blue, 72 hr); assay type: cell-based; details: PC-3; human cancer cells; read-out: CELL KILLING EC50 (μM) Prostate PCx3
Method: (§1) Cancer cell lines were seeded in 96 well tissue culture plate at a low density (10,000 cells per well) and treated with varying concentrations of Eggmanone. After 72 hr incubation, CellTiter-Blue Cell Viability Assay (Promega, Madison, Wis.) was then performed according to manufacturer's protocol. Absorbance was then measured in a Modulus Microplate reader (Promega, Madison, Wis.) at 590 nm and compared to cells treated with DMSO.

MCF7 = assay: Cell viability assay (CellTiter-Blue, 72 hr); assay type: cell-based; details: human cancer cells; for EC50: MCF7, read-out: CELL KILLING EC50 (μM) Breast MCF7
Method: as §1
as §1, with “density” for “density (10,000 cells per well)”, “compounds identified in Table 7.” for “Eggmanone.”

B16F11 = assay: Cell viability assay (CellTiter-Blue, 72 hr); assay type: cell-based, Mouse; details: Mus musculus, B16-F10; Table 10; read-out: CELL KILLING EC50 (μM) Melanoma B16F10
Method: as §1
as §1, with “density” for “density (10,000 cells per well)”, “compounds identified in Table 7.” for “Eggmanone.”

H82 = assay: Cell killing EC50 in H82 lung cancer cells (Table 10); assay type: cell-based; details: human cancer cells; for EC50: NCI-H82
Method: It is anticipated that compounds disclosed herein could serve as an anti-tumor, anti-angiogenic, anti-metastatic, agent in the treatment of cancer. To this end, a series of clinically relevant cancer lines were assayed and the cell-killing EC50s for compounds according to the subject matter disclosed herein are provided in Table 10.

DaoY = assay: Cell viability assay (CellTiter-Blue, 72 hr); assay type: cell-based, Human; details: Daoy; human cancer cells; read-out: CELL KILLING EC50 (μM) Medulloblastoma DaoY
Method: as §1
as §1, with “density” for “density (10,000 cells per well)”, “compounds identified in Table 7.” for “Eggmanone.”

DU145 = assay: Cell viability assay (CellTiter-Blue, 72 hr); assay type: cell-based, Human; details: DU-145; human cancer cells; read-out: CELL KILLING EC50 (μM) Prostate DU145
Method: as §1
as §1, with “density” for “density (10,000 cells per well)”, “compounds identified in Table 7.” for “Eggmanone.”

HCT116 = assay: Cell viability assay (CellTiter-Blue, 72 hr); assay type: cell-based, Human; details: HCT-116; human cancer cells; read-out: CELL KILLING EC50 (μM) Colon HTC116
Method: as §1
as §1, with “density” for “density (10,000 cells per well)”, “compounds identified in Table 7.” for “Eggmanone.”

MDA-MB- 231 = assay: Cell viability assay (CellTiter-Blue, 72 hr); assay type: cell-based, Human; details: MDA-MB-231; human cancer cells; read-out: CELL KILLING EC50 (μM) Breast MDA-231
Method: as §1
as §1, with “density” for “density (10,000 cells per well)”, “compounds identified in Table 7.” for “Eggmanone.”

HeLa = assay: Cell viability assay (CellTiter-Blue, 72 hr); assay type: cell-based, Human; details: human cancer cells, read-out: CELL KILLING EC50 (μM) Cervix HeLa
Method: as §1
as §1, with “density” for “density (10,000 cells per well)”, “compounds identified in Table 7.” for “Eggmanone.”

SW480 = assay: Cell viability assay (CellTiter-Blue, 72 hr); assay type: cell-based, Human
Method: as §1
as §1, with “density” for “density (10,000 cells per well)”, “compounds identified in Table 7.” for “Eggmanone.”

RWGT2 = assay: Cell viability assay (CellTiter-Blue, 72 hr); assay type: cell-based, Human; details: human cancer cells; read-out: CELL KILLING EC50 (μM) Lung Squam, NSCLC RWGT2
Method: as §1
as §1, with “density” for “density (10,000 cells per well)”, “compounds identified in Table 7.” for “Eggmanone.”

RKO = assay: Cell viability assay (CellTiter-Blue, 72 hr); assay type: cell-based, Human; details: for EC50: RKO
Method: as §1
as §1, with “density” for “density (10,000 cells per well)”, “compounds identified in Table 7.” for “Eggmanone.”

PDE4D2 = molecular target: T1, PDE4D2 (Homo sapiens, UniProt Q08499); assay: In vitro PDE assay; assay type: biochemical
T1 construct: purchased BPS Biosciences (San Diego, Calif.)
Method: (§2) In vitro PDE profiling and dose-response assays were performed by BPS Biosciences (San Diego, Calif.). Kinetic Mechanism of inhibition studies were conducted by Millipore (St. Louis, Mo.). In brief, the PDE assay measures fluorescent polarization of FAM-AMP as FAM-cAMP is converted to FAM-AMP by PDE), the binding agent.
(§3) A series of dilutions of the test compound were prepared with 10% DMSO in assay buffer and 5 μl of the dilution was added to a 50 μl reaction so that the final concentration of DMSO is 1% in all of reactions. All of the PDE enzymatic reactions were conducted in duplicate at room temperature for 60 minutes in a 50 μl mixture containing PDE assay buffer (10 mM Tris-HCl, pH7.4, 10 mM MaCl2, 0.05% Tween 20), 100 nM FAM-cAMP, a PDE enzyme and a test compound.
(§4) After the enzymatic reaction, 100 μl of a binding solution (1:100 dilution of the binding agent, which contains the nano beads that recognize FAM-AMP, with the binding agent diluent) was added to each reaction and the reaction was performed at room temperature for 60 minutes. Fluorescence intensity was measured at an excitation of 485 nm and an emission of 528 nm using a Tecan Infinite M1000 microplate reader. Assays done by Millipore were conducted similarly with changes noted below: […]

PDE4D3 = molecular target: T2, PDE4D3 (Homo sapiens, UniProt Q08499); assay: In vitro PDE assay; assay type: biochemical
T2 construct: purchased BPS Biosciences (San Diego, Calif.); kinetic studies by Millipore (St. Louis, Mo.)
Method: as §2, §3, §4

PDE4D = PDE4D (Homo sapiens, UniProt Q08499); assay: PDE4 inhibition assay (PDE4D IC50); assay type: biochemical; details: read-out: PDE4D IC50
Method: as §2, §3
After the enzymatic reaction, 100 μl of a binding solution (1:100 dilution of the binding agent, which contains the nano beads that recognize FAM-AMP, with the binding agent diluent) was added to each reaction and the reaction was performed at room temperature for 60 minutes. Fluorescence intensity was measured at an excitation of 485 nm and an emission of 528 nm using a Tecan Infinite M1000 microplate reader. Assays done by Millipore were conducted similarly with changes noted below:
Hedgehog signaling inhibition and PDE4 inhibition of various compounds disclosed herein was assayed as described herein above.

[2] = SW480, human cancer cells, read-out: CELL KILLING EC50 (μM) Colon SW480
[3] = human cancer cells, read-out: CELL KILLING EC50 (μM) Colon RKO

T1 sequence (Q08499 303-809): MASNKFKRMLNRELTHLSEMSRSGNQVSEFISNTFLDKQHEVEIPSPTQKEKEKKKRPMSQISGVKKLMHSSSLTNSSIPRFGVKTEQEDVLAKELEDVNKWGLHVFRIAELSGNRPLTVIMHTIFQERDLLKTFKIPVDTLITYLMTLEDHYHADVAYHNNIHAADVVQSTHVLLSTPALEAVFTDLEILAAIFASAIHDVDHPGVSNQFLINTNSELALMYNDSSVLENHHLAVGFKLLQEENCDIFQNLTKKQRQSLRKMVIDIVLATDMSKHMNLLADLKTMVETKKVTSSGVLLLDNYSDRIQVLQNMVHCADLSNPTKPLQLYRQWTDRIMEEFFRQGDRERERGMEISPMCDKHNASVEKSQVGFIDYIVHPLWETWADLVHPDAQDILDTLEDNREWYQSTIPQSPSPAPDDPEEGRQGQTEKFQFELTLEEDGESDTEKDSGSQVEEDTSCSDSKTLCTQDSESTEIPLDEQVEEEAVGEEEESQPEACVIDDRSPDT
T2 sequence (Q08499 1-673 isoform Q08499-2): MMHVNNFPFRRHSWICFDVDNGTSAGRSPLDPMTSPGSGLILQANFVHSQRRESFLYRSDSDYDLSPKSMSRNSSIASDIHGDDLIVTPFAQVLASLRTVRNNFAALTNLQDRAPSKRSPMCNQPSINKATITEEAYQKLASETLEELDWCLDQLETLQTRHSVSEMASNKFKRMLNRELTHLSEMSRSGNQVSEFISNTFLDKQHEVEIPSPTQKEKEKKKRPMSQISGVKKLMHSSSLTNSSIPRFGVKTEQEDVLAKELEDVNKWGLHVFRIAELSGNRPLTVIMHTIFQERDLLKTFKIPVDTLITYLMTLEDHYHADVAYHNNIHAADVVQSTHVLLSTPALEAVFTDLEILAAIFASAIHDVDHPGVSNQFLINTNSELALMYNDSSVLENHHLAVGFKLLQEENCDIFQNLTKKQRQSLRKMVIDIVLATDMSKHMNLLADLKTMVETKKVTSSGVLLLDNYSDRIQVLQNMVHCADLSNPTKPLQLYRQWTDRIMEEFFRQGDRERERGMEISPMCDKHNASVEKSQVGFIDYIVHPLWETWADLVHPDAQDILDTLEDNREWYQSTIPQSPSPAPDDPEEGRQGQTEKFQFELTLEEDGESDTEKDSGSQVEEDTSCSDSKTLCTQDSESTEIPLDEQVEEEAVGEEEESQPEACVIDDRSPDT
PDE4D, sequence (Q08499 1-673 isoform Q08499-2): as above

| Compound | EC50 ([1]; Table 9A) | IC50 (PDE4D2; Table 9A) | IC50 (PDE4D3; Table 9A) | EC50 ([1]; Table 9B) | IC50 (PDE4D3; Table 9B) | EC50 (PC3) | EC50 (MCF7) | EC50 (B16F11) | CELL KILLING EC50 (μM) Lung H82 (H82) | EC50 (DaoY) | EC50 (DU145) | EC50 (HCT116) | EC50 (MDA-MB- 231) | EC50 (HeLa) | EC50 (SW480; [2]) | EC50 (RWGT2) | EC50 (RKO; [3]) | CELL KILLING EC50 (μM) Breast MCF7 (MCF7) | EC50 (H82) | further results |
| --- | --- | --- | --- | --- | --- | --- | --- | --- | --- | --- | --- | --- | --- | --- | --- | --- | --- | --- | --- | --- |
| C=C(C)Cn1c(SCC(=O)N2Cc3ccccc3C2)nc2sc3c(c2c1=O)CCCC3 [Formula 1KMT] | > 20 µM | 46 µM | 30 µM |  |  | 74 µM | 1.08 µM | 61.7 µM | UnCh | 58.2 µM | 32.4 µM | 89.2 µM | 68.3 µM | 49.7 µM | 4.89 µM | 51.1 µM | 75.6 µM |  |  |  |
| C=CCn1c(SCC(=O)N2CCN(C)CC2)nc2sc3c(c2c1=O)CCCC3 [Formula 1KN7] | 5 to 10 µM | 1.7 µM | 1.8 µM |  |  | 45.7 µM |  | 25.8 µM | UnCh | 58.6 µM | 91.4 µM | 21.3 µM | 10.3 µM | 27.5 µM | 0.0574 µM | 28.4 µM | 8.39 µM | UnCh |  | IC50 [1]: 10 µM; EC50 (SW480; 72 h, read-out: EC50 (50% reduction of viable cell count at 72 hours), SW480, Human Colorectal Adenocarcinoma): 0.057 µM; EC50 (RKO; 72 h, read-out: EC50 (50% reduction of viable cell count at 72 hours), Human Colon Carcinoma): 8.39 µM; IC50 (PDE4D): 2.1 µM and 2.08 µM |
| C=C(C)Cn1c(SCC(=O)c2ccc(-c3ccccc3)cc2)nc2sc3c(c2c1=O)CCCC3 [Formula 1KXQ] | > 20 µM | > 100 µM | > 100 µM |  |  | 41.1 µM |  | 28.7 µM | UnCh | 46.8 µM | 0.029 µM | 12 µM | > 100 µM | 12.2 µM | 44 µM | 80.9 µM |  | UnCh |  | CELL KILLING EC50 (μM) Colon RKO (RKO; human cancer cells): UnCh |

More lines, main results first:

| EC50 ([1]; Table 9A) | IC50 (PDE4D2; Table 9A) | IC50 (PDE4D3; Table 9A) | EC50 ([1]; Table 9B) | IC50 (PDE4D3; Table 9B) | Compound | EC50 (PC3) | EC50 (MCF7) | EC50 (B16F11) | CELL KILLING EC50 (μM) Lung H82 (H82) | EC50 (DaoY) | EC50 (DU145) | EC50 (HCT116) | EC50 (MDA-MB- 231) | EC50 (HeLa) | EC50 (SW480; [2]) | EC50 (RWGT2) | EC50 (RKO; [3]) | CELL KILLING EC50 (μM) Breast MCF7 (MCF7) | EC50 (H82) | further results |
| --- | --- | --- | --- | --- | --- | --- | --- | --- | --- | --- | --- | --- | --- | --- | --- | --- | --- | --- | --- | --- |
|  |  |  | < 1 µM | 14 µM | C=CCn1c(SCC(=O)c2ccccc2)nc2scc(-c3ccccc3)c2c1=O [HI696] | > 100 µM | > 100 µM | 0.0066 µM |  | 2.95 µM | > 100 µM | 3.2 µM | 1.2 µM | 3.75 µM | 2.6 µM | 64.9 µM | > 100 µM |  | > 100 µM | IC50 (PDE4D2; Table 9B): 7.4 µM |
|  |  |  | > 10 µM | 20 µM | CCCCn1c(SCC(=O)c2ccccc2)nc2sc3c(c2c1=O)CCC3 [HI352] | 0.03 µM | > 100 µM | 109 µM |  | 100 µM | 98.1 µM | 74.7 µM | 84.5 µM | 114 µM | 0.287 µM | 73.8 µM | 100 µM |  | > 100 µM |  |
